We go through eight compounds from ChEMBL document CHEMBL1130722, “Synthesis of gem-difluoro-avermectin derivatives: potent anthelmintic and anticonvulsant agents” (1998).

Common to all, as to format: functional
One test has as its system Artemia salina. As to the kind of experiment: Compound was tested for the antiparasitic activity by using Artemia salina (brine shrimp) immobilization assay.
For test [1], the species on record is Mus musculus. As to the kind of experiment: Compound was tested for the anticonvulsant activity in pentamethylenetetrazole mouse epilepsy model.
The species named for test [2] is Mus musculus. As to the kind of experiment: Compound was tested for the sedative effect by using mouse rotarod test. Particulars: for minimal effective dose: read-out: MED. Background: In the rotarod test animals must keep their balance on a rotating rod.
A further test relates to Haemonchus contortus. In words: Compound was tested for the anthelmintic efficacy by using Haemonchus contortus larval assay.

In general, ED50 refers to the dose at which the effect has come halfway, by size or by number of responders. The low end stands for greater potency, the high end for weaker potency. For `CCC(C)[C@H]1O[C@@]2(C[C@@H]3C[C@@H](C/C=C(\C)[C@@H](O[C@H]4C[C@H](OC)[C@@H](O[C@H]5C[C@H](OC)[C@@H](O)[C@H](C)O5)[C@H](C)O4)[C@@H](C)/C=C/C=C4\CO[C@@H]5[C@H](O)C(C)=C[C@@H](C(=O)O3)[C@]45O)O2)CC(F)(F)[C@@H]1C` (stereo partly drawn), the IC100 is 13009 ng/mL in the test on Artemia salina and 10 ng/mL with Haemonchus contortus. The compound further displayed an ED50 in the test filed under Mus musculus [1] of 9 mg/kg. Further, in the test listed under Mus musculus [2], the minimal effective dose was > 40 mg/kg.
In the case of `CCC(C)[C@H]1O[C@]2(C=C[C@@H]1C)C[C@@H]1C[C@@H](C/C=C(\C)[C@@H](O[C@H]3C[C@H](OC)[C@@H](O[C@H]4C[C@H](OC)[C@H](O)[C@H](C)O4)[C@H](C)O3)[C@@H](C)/C=C/C=C3\CO[C@@H]4[C@H](O)C(C)=C[C@@H](C(=O)O1)[C@]34O)O2` (stereo partly drawn), the IC100 in the test on Artemia salina turned out to be 430 ng/mL; in the test listed under Mus musculus [1], 28.2 ng/mL.
In turn, `CN1C(=O)CN=C(c2ccccc2)c2cc(Cl)ccc21` [DIAZEPAM] gave an ED50 in the test listed under Mus musculus [1] of 0.26 mg/kg. Further, the minimal effective dose in the test filed under Mus musculus [2] is 3 mg/kg.
Consider IVERMECTIN, for which the IC100 in the test with Artemia salina was 430 ng/mL; in the test with Haemonchus contortus, 10 ng/mL. The compound also displayed an ED50 in the test listed under Mus musculus [1] of 28.2 mg/kg. For the same compound, in the test listed under Mus musculus [2], the MED is > 300 mg/kg.
Take `CCC(C)[C@H]1O[C@]2(C=C[C@@H]1C)C[C@@H]1C[C@@H](C/C=C(\C)[C@@H](O[C@H]3C[C@H](OC)[C@@H](O[C@H]4C[C@H](OC)C(F)(F)[C@H](C)O4)[C@H](C)O3)[C@@H](C)/C=C/C=C3\CO[C@@H]4[C@H](O)C(C)=C[C@@H](C(=O)O1)[C@]34O)O2` (stereo partly drawn): the IC100 in the test with Artemia salina is 5200 ng/mL; in the test on Haemonchus contortus, 10 ng/mL.
With `CCC(C)[C@H]1O[C@]2(C=C[C@@H]1C)C[C@@H]1C[C@@H](C/C=C(\C)[C@@H](O[C@H]3C[C@H](OC)C(F)(F)[C@H](C)O3)[C@@H](C)/C=C/C=C3\CO[C@@H]4[C@H](O)C(C)=C[C@@H](C(=O)O1)[C@]34O)O2` (stereo partly drawn), the IC100 in the test with Haemonchus contortus worked out at 10 ng/mL.
On the same count and under the same terms, with `CCC(C)[C@H]1O[C@@]2(C[C@@H]3C[C@@H](C/C=C(\C)[C@@H](O[C@H]4C[C@H](OC)[C@@H](O[C@H]5C[C@H](OC)[C@@H](O)[C@H](C)O5)[C@H](C)O4)[C@@H](C)/C=C/C=C4\CO[C@@H]5[C@H](OC)C(C)=C[C@@H](C(=O)O3)[C@]45O)O2)CC(F)(F)[C@@H]1C` (stereo partly drawn) the figure was 10 ng/mL.
`CCC(C)[C@H]1O[C@]2(C=C[C@@H]1C)C[C@@H]1C[C@@H](C/C=C(\C)C(F)(F)[C@@H](C)/C=C/C=C3\CO[C@@H]4[C@H](O)C(C)=C[C@@H](C(=O)O1)[C@]34O)O2` (stereo partly drawn): the IC100 with Artemia salina amounted to 325 ng/mL; in the test on Haemonchus contortus, 10 ng/mL.
